# Test results from patent US8119563B2, “N-substituted azacycles” (FMC Corporation, priority 2003, dated 2012).
# Tested on: tobacco budworm (Heliothis virescens [Fabricius])
# Assay: surface-treated diet test, insecticidal activity against tobacco budworm
# Assay type: in vivo
# Set-up: mortality: concentration or dose not given beside the values
# Conditions: 0.25 millimoles of candidate insecticide on the surface of the diet, second instar larvae, five-day exposure; for Percent Mortality / mortality: compared to total number of insects infested; for Percent Growth Inhibition / pest or weed control at 0.25 mmol/well: inhibition of insect weight relative to untreated controls; for mortality / pest or weed control at 0.25 mmol/well: Heliothis virescens, 120 h; for mortality: read-out: Percent Mortality; for pest or weed control at 0.25 mmol/well: read-out: Percent Growth Inhibition
# Description: Candidate insecticides were evaluated for activity against the tobacco budworm (Heliothis virescens [Fabricius]) in a surface-treated diet test.
# In this test one mL of molten (65-70° C.) wheat germ-based artificial diet was pipetted into each well of a four by six (24 well) multi-well plate (ID# 430345-15.5 mm dia.×17.6 mm deep; Corning Costar Corp., One Alewife Center, Cambridge, Mass. 02140). The diet was allowed to cool to ambient temperature before treatment with candidate insecticide.
# For a determination of insecticidal activity, solutions of the candidate insecticides were prepared for testing using a Packard 204DT Multiprobe® Robotic System (Packard Instrument Company, 800 Research Parkway, Meriden, Conn. 06450), in which the robot first diluted a standard 50 millimolar DMSO solution of candidate insecticide with a 1:1 water/acetone solution (V/V) in a ratio of 1:7 stock solution to water/acetone. The robot subsequently pipetted 40 microliters of the so-prepared solution onto the surface of the diet in each of three wells in the 24 multi-well plate. The process was repeated with solutions of seven other candidate insecticides. Once treated, the contents of the multi-well plate were allowed to dry, leaving 0.25 millimoles of candidate insecticide on the surface of the diet, or a concentration of 0.25 millimolar. Appropriate untreated controls containing only DMSO on the diet surface were also included in this test.
# For evaluations of the insecticidal activity of a candidate insecticide at varying rates of application, the test was established as described above using sub-multiples of the standard 50 millimolar DMSO solution of candidate insecticide. For example, the standard 50 millimolar solution was diluted by the robot with DMSO to give 5, 0.5, 0.05, 0.005, 0.0005 millimolar, or more dilute solutions of the candidate insecticide. In these evaluations there were six replicates of each rate of application placed on the surface of the diet in the 24 multi-well plate, for a total of four rates of application of candidate insecticide in each plate.
# In each well of the test plate was placed one second instar tobacco budworm larvea, each weighing approximately five milligrams. After the larvae were placed in each well, the plate was sealed with clear polyfilm adhesive tape. The tape over each well was perforated to ensure an adequate air supply. The plates were then held in a growth chamber at 25° C. and 60% relative humidity for five days (light 14 hours/day).
# After the five-day exposure period insecticidal activity for each rate of application of candidate insecticide was assessed as percent inhibition of insect weight relative to the weight of insects from untreated controls, and percent mortality when compared to the total number of insects infested.
# The test compounds of formula I are identified by numbers that correspond to those in Table 1.
SMILES,Percent Mortality [%],Percent Growth Inhibition [%],mortality [%],pest or weed control at 0.25 mmol/well [%]
CCOC(=O)CNC(=O)Oc1ccc(CN2CCC(O)(C(c3ccc(OC(F)(F)F)cc3)c3ccc(OC(F)(F)F)cc3)CC2)cc1 [Compound 317],100,100,,
OC1(C(c2ccc(C(F)(F)F)cc2)c2cc(Cl)cc(Cl)c2)CCN(Cc2ccc(Oc3ncccn3)cc2)CC1 (centres unmarked) [Compound 3],100,100,,
OC1(C(c2ccc(OC(F)(F)F)cc2)c2ccc(Cl)cc2F)CCN(Cc2ccc(Oc3ccccn3)cc2)CC1 (centres unmarked) [Compound 445],100,100,,
"Cn1nnc(-c2ccc(CN3CCC(O)(C(O)(c4ccc(OC(F)(F)F)cc4)c4ccc(OC(F)(F)F)cc4)CC3)cc2)n1 [Compound 93, 4-{bis[4-(trifluoromethoxy)phenyl]hydroxymethyl}-1-{[4-(2-methyl(1,2,3,4-tetrazol-5-yl))phenyl]methyl}piperidin-4-ol]",,,100,100
OC1(C(c2ccc(OC(F)(F)F)cc2)c2ccc(OC(F)(F)F)cc2)CCN(CCOc2ccc(Br)cc2)CC1 [Compound 477],100,100,,
Cc1ccc(Oc2ccc(C[N+]3([O-])CCC(O)(C(c4ccc(OC(F)(F)F)cc4)c4ccc(OC(F)(F)F)cc4)CC3)cc2)nn1 (centres unmarked) [Compound 413],100,100,,
OC1(C(c2ccc(OC(F)(F)F)cc2)c2ccc(C(F)(F)F)cc2)CCN(Cc2ccc(Oc3ncccn3)cc2)CC1 (centres unmarked) [Compound 2],100,100,,
"COCCOc1ccc(CN2CCC(O)(C(c3ccc(OC(F)(F)F)cc3)c3ccc(OC(F)(F)F)cc3)CC2)cc1 [Compound 308, 4-{bis[4-(trifluoromethoxy)phenyl]methyl}-1-{[4-(2-methoxyethoxy)phenyl]methyl}piperidin-4-ol]",,,100,100
OC1(C(c2ccc(OC(F)(F)F)cc2)c2ccc(OC(F)(F)F)cc2)CCN(Cc2ccc(Oc3ncccc3C(F)(F)F)cc2)CC1 [Compound 30],100,100,,
[O-][N+]1(Cc2ccc(-c3ncccn3)cc2)CCC(O)(C(c2ccc(OC(F)(F)F)cc2)c2ccc(OC(F)(F)F)cc2)CC1 (centres unmarked) [Compound 116],100,100,,
CC1(C)[C@@H]2CCC1(CS(=O)(=O)[O-])C(=O)C2.OC1(C(c2ccc(OC(F)(F)F)cc2)c2ccc(OC(F)(F)F)cc2)CC[N+](O)(Cc2ccc(Oc3ccccn3)cc2)CC1 (centres unmarked) [Compound 505],100,100,,
CCOC(OCC)c1ccc(CN2CCC(O)(C(c3ccc(OC(F)(F)F)cc3)c3ccc(OC(F)(F)F)cc3)CC2)cc1 [Compound 273],100,100,,
[O-][N+]1(CCOc2ccc(Cl)cc2)CCC(O)(C(c2ccc(OC(F)(F)F)cc2)c2ccc(OC(F)(F)F)cc2)CC1 (centres unmarked) [Compound 478],100,100,,
COc1cc(C[N+]2([O-])CCC(O)(C(c3ccc(OC(F)(F)F)cc3)c3ccc(OC(F)(F)F)cc3)CC2)ccc1Oc1ccccn1 (centres unmarked) [Compound 465],100,100,,
[O-][N+]1(Cc2ccc(Oc3ccccn3)cc2)CCC(O)(C(c2ccc(Cl)cc2)c2ccc(Cl)cc2)CC1 (centres unmarked) [Compound 345],100,100,,
OC1(C(c2ccc(OC(F)(F)F)cc2)c2ccc(OC(F)(F)F)cc2)CCN(Cc2ccc(-c3ccccn3)cc2)CC1 [Compound 309],100,100,,
